Assay results: publication PMC5994430, “Mitochondrial Delivery of Phenol Substructure Triggers Mitochondrial Depolarization and Apoptosis of Cancer Cells” (Frontiers in Pharmacology, 2018)

Legend:
MCF10A cells = test: Cell viability (neutral red), IC50; type: cell-based; settings: Homo sapiens, MCF-10A, MCF10A normal breast epithelial cells, CompuSyn
Excerpt: (§1) Human colon cancer HT29 cells, colon-derived normal fibroblast CCD-18Co cells, lung cancer A549 cells, normal human bronchial epithelial (immortalized with adenovirus 12-SV40 virus hybrid Ad12SV40) BEAS-2B cells, breast cancer MDA-MB-231 cells, normal breast epithelial MCF10A cells, human osteosarcoma U-2OS cells were purchased from ATCC (Manassas, VA, United States). Primary osteoblasts were generated as reported previously ([Buondonno et al., 2016]). HMM and HMC were primary cells stabilized in culture as described ([Aldieri et al., 2004]). The use of primary cells was approved by Ethical Committee of the San Luigi Gonzaga Hospital, Orbassano, (protocol #126/2016). All subjects gave written informed consent in accordance with the Declaration of Helsinki. Cells were maintained in medium supplemented with 10% v/v fetal bovine serum, 1% v/v penicillin-streptomycin, 1% v/v L-glutamine. Morphological analysis was performed with a bright field microscope (Leica Microsystems, Wetzlar, Germany). At least 5 fields/experimental condition were examined.
(§2) The extracellular release of LDH, considered an index of cell damage and necrosis, was measured spectrophotometrically, as reported ([Riganti et al., 2013b]). The extracellular medium was centrifuged at 12,000 × g for 15 min to pellet cellular debris, the cells were washed with fresh medium, detached with 0.01% trypsin/EDTA, re-suspended in 0.2 ml of 82.3 mM triethanolamine phosphate-HCl (pH 7.6), and sonicated on ice with two 10-sec bursts. LDH activity was measured in the extracellular medium and in the cell lysate: 50 μl of extracellular medium or 5 μl of cell lysate were incubated at 37°C with 5 mM NADH. The reaction was started by adding 20 mM pyruvic acid and was monitored for 6 min, measuring absorbance at 340 nm using a Synergy HT Multi-Detection Microplate Reader (Bio-Tek Instruments, Winoosky, MT, United States). The reaction kinetics were linear throughout the time of measurement. Both intracellular and extracellular enzyme activities were expressed as μmol NADH oxidized/min/dish. The results were expressed as percentage of extracellular LDH versus total (intracellular plus extracellular) LDH. Cell viability was measured by the neutral red staining method, as previously reported ([Riganti et al., 2015b]). The absorbance of untreated cells was considered as 100% viability; the results were expressed as percentage of viable cells versus untreated cells. IC50 was calculated with the CompuSyn software^1.

[1] = test system: HMC (human mesothelial cells); test: Cell viability (neutral red), IC50; type: cell-based; settings: HMC primary mesothelial cells, CompuSyn
Excerpt: as §1, §2

[2] = test system: HMM (human malignant mesothelioma) cells; test: Cell viability (neutral red), IC50; type: cell-based; settings: HMM primary malignant mesothelioma cells, CompuSyn
Excerpt: as §1, §2

Primary osteoblasts = test: Cell viability (neutral red), IC50; type: cell-based; settings: Homo sapiens, Osteoblast, CompuSyn
Excerpt: as §1, §2

CCD-18Co cells = test: Cell viability (neutral red), IC50; type: cell-based; settings: Homo sapiens, CCD-18Co colon-derived normal fibroblasts, CompuSyn
Excerpt: as §1, §2

HT29 cells = test: Cell viability (neutral red), IC50; type: cell-based; settings: Homo sapiens, HT-29, HT29 colon cancer cells, CompuSyn
Excerpt: as §1, §2

[3] = test system: electron transport between complexes I and III; test: Electron transport chain in mitochondrial extracts of A549 cells; type: cell-based, Human; settings: 0.1 μM, 4 h
Protocol: The electron transport between complexes I and III was measured in mitochondrial extracts, immediately after extract thawing, as detailed earlier ([Jean et al., 2015]). In particular, 10 μl of not-sonicated mitochondrial samples were re-suspended in 0.59 ml buffer C (5 mM KH2PO4, 5 mM MgCl2, 5% w/v BSA) and transferred into a quartz spectrophotometer cuvette. Then 0.38 ml buffer D (25% w/v saponin, 50 mM KH2PO4, 5 mM MgCl2, 5% w/v BSA, 0.12 mM cytochrome c-oxidized form, 0.2 mM NaN3) was added for 5 min at room temperature. The reaction was started with 0.15 mM NADH and was followed for 5 min, reading the absorbance at 550 nm by a Lambda 3 spectrophotometer (PerkinElmer, Waltham, MA, United States). The results were expressed as nmoles reduced cytochrome c/min/mg mitochondrial proteins. […]
[t] […] (E,F) The electron transport was measured spectrophotometrically in duplicates. ATP levels in mitochondrial extracts was measured by a chemiluminescence-based assay, in duplicates. […] (G,H) ROS amount in mitochondrial extracts and mitochondrial damage were measured fluorimetrically, in duplicates. […] There were no statistically significant differences between untreated (ctrl) and compound 1/compound 2-treated BEAS-2B cells for all the parameters analyzed in this figure.

U-2OS cells = test: Cell viability (neutral red), IC50; type: cell-based, Human; settings: U-2OS osteosarcoma cells, CompuSyn

Row | SMILES | IC50 (MCF10A cells) [µM] | IC50 [1] [µM] | IC50 [2] [µM] | IC50 (Primary osteoblasts) [µM] | IC50 (CCD-18Co cells) [µM] | IC50 (HT29 cells) [µM] | rate of electron transport [3] | IC50 (U-2OS cells; Homo sapiens, U2OS) [µM] | IC50 (U-2OS cells) [µM]
1 | CC(=O)Oc1ccc(C[P+](c2ccccc2)(c2ccccc2)c2ccccc2)cc1.[Br-] [Compound 1] | 7.52 ± 0.43 | 7.37 ± 0.89 | 4.39 ± 0.35 | 6.46 ± 0.83 | 18.2 ± 1.29 | 4.45 ± 0.78 | significant decrease |  | 
2 | O=C(Oc1ccc(C[P+](c2ccccc2)(c2ccccc2)c2ccccc2)cc1C(F)(F)F)c1ccccc1.[Br-] [Compound 2] | 6.32 ± 0.41 | 39.1 ± 4.34 | 0.82 ± 0.07 | 3.41 ± 0.73 | 7.89 ± 0.36 | 3.81 ± 0.47 | significant decrease | < 1 | 0.63 ± 0.1
